# According to PMC8286840, “Identifying SARS-CoV-2 antiviral compounds by screening for small molecule inhibitors of Nsp3 papain-like protease” (Biochemical Journal, 2021):
# Counter-ions that a name gives are not always drawn. Like-named read-outs stand apart in the source and are kept apart here.
# How the values were obtained:
# [1] = target: T1, SARS-CoV-2 PLpro (nsp3 1564–1878) (Severe acute respiratory syndrome coronavirus 2, UniProt P0DTD1); assay: biochemical; design: FRET-quenched peptide (Pro3) cleavage by PLpro, 10 min pre-incubation, slope over 20 min, normalised to no-compound control; details: low concentration screen, read-out: % of control remaining
# [2] = target: T1, SARS-CoV-2 PLpro (nsp3 1564–1878); assay: biochemical; design: FRET-quenched peptide (Pro3) cleavage by PLpro, 10 min pre-incubation, slope over 20 min, normalised to no-compound control; details: high concentration screen, read-out: % of control remaining
smiles,measurement,setting,value
COc1cc([C@@H]2c3cc4c(cc3[C@@H](O[C@@H]3O[C@@H]5CO[C@@H](C)O[C@H]5[C@H](O)[C@H]3O)[C@H]3COC(=O)[C@H]23)OCO4)cc(OC)c1O [Etoposide],remaining activity at 1.25 µM,[1]; Well no.=454,103%
same,remaining activity at 1.25 µM,[1]; Well no.=1670,99.8%
same,remaining activity at 1.25 µM,[1]; Well no.=6154,102%
same,remaining activity at 3.75 µM,[2]; Well no.=454,97.1%
same,remaining activity at 3.75 µM,[2]; Well no.=1670,99.3%
same,remaining activity at 3.75 µM,[2]; Well no.=3279,102%
same,remaining activity at 3.75 µM,[2]; Well no.=6154,103%
Cc1ccc(-c2ncc(Cl)cc2-c2ccc(S(C)(=O)=O)cc2)cn1 [Etoricoxib],remaining activity at 1.25 µM,[1]; Well no.=1925,106%
same,remaining activity at 3.75 µM,[2]; Well no.=1925,106%
CCOC(=O)/C=C(C)/C=C/C=C(C)/C=C/c1c(C)cc(OC)c(C)c1C [Etretinate],remaining activity at 1.25 µM,[1]; Well no.=2070,102%
same,remaining activity at 3.75 µM,[2]; Well no.=2070,101%
CC12CCC(CC1)C(C)(C)O2 [Eucalyptol],remaining activity at 1.25 µM,[1]; Well no.=6874,99.2%
same,remaining activity at 3.75 µM,[2]; Well no.=6874,99.2%
COc1ccc([C@@H]2OC[C@@H]3[C@H]2CO[C@H]3c2ccc(OC)c(OC)c2)cc1OC [Eudesmine],remaining activity at 1.25 µM,[1]; Well no.=3117,95.1%
same,remaining activity at 3.75 µM,[2]; Well no.=3117,88.7%
C=CCc1ccc(O)c(OC)c1 [Eugenol],remaining activity at 1.25 µM,[1]; Well no.=4005,92.8%
same,remaining activity at 3.75 µM,[2]; Well no.=4005,96.7%
CC(=O)O[C@H]1[C@H]2[C@@H](OC(=O)Cc3ccccc3)[C@@H](C)C[C@]2(OC(C)=O)C(=O)/C(C)=C/[C@@H]2[C@H](CC[C@@]13CO3)C2(C)C [Euphorbiasteroid],remaining activity at 1.25 µM,[1]; Well no.=3605,103%
same,remaining activity at 3.75 µM,[2]; Well no.=3605,109%
Cc1cc(C)c2c(c1)[C@@H](N(Cc1cc(C(F)(F)F)cc(C(F)(F)F)c1)c1nnn(C)n1)CCCN2C[C@H]1CC[C@H](C(=O)O)CC1 [Evacetrapib (LY2484595)],remaining activity at 1.25 µM,[1]; Well no.=5320,96.7%
same,remaining activity at 3.75 µM,[2]; Well no.=5320,100%
Cc1cc(-c2ccc(/N=N/c3ccc4c(S(=O)(=O)O)cc(S(=O)(=O)O)c(N)c4c3O)c(C)c2)ccc1/N=N/c1ccc2c(S(=O)(=O)O)cc(S(=O)(=O)O)c(N)c2c1O [Evans Blue],remaining activity at 1.25 µM,[1]; Well no.=8652,99.2%
same,remaining activity at 3.75 µM,[2]; Well no.=8652,92.3%
CO[C@H]1C[C@@H]2CC[C@@H](C)[C@@](O)(O2)C(=O)C(=O)N2CCCC[C@H]2C(=O)O[C@H]([C@H](C)C[C@@H]2CC[C@@H](OCCO)[C@H](OC)C2)CC(=O)[C@H](C)/C=C(\C)[C@@H](O)[C@@H](OC)C(=O)[C@H](C)C[C@H](C)/C=C/C=C/C=C/1C [Everolimus],remaining activity at 1.25 µM,[1]; Well no.=8740,90.8%
same,remaining activity at 3.75 µM,[2]; Well no.=8740,87.3%
C=C1C[C@@H]2[C@H](CC[C@]3(C)C(=O)CC[C@@H]23)[C@@]2(C)C=CC(=O)C=C12 [Exemestane],remaining activity at 1.25 µM,[1]; Well no.=1623,104%
same,remaining activity at 3.75 µM,[2]; Well no.=1623,102%
CCOC(=O)[C@@H](N)CCC(=O)N[C@@H](CSCc1ccccc1)C(=O)N[C@@H](C(=O)OCC)c1ccccc1 [Ezatiostat],remaining activity at 1.25 µM,[1]; Well no.=8366,91%
same,remaining activity at 3.75 µM,[2]; Well no.=8366,90.3%
O=C1[C@H](CC[C@H](O)c2ccc(F)cc2)[C@@H](c2ccc(O)cc2)N1c1ccc(F)cc1 [Ezetimibe],remaining activity at 1.25 µM,[1]; Well no.=8428,91.6%
same,remaining activity at 3.75 µM,[2]; Well no.=8428,89.1%
NC(N)=Nc1nc(CSCC/C(N)=N/S(N)(=O)=O)cs1 [FAMOTIDINE],remaining activity at 1.25 µM,[1]; Well no.=471,103%
same,remaining activity at 1.25 µM,[1]; Well no.=1740,101%
same,remaining activity at 1.25 µM,[1]; Well no.=6622,104%
same,remaining activity at 3.75 µM,[2]; Well no.=471,104%
same,remaining activity at 3.75 µM,[2]; Well no.=1740,101%
same,remaining activity at 3.75 µM,[2]; Well no.=6622,106%
Cc1nc(C(=O)NCC(=O)O)c(O)c2ccc(Oc3ccccc3)cc12 [FG-4592],remaining activity at 1.25 µM,[1]; Well no.=4995,102%
same,remaining activity at 3.75 µM,[2]; Well no.=4995,105%
Cc1cc([N+](=O)[O-])ccc1NS(=O)(=O)c1cc(Cl)ccc1Cl [FH535],remaining activity at 1.25 µM,[1]; Well no.=8814,96.3%
same,remaining activity at 3.75 µM,[2]; Well no.=8814,98.3%
O=S(=O)(NC1CCCCC1)c1ccc2c(c1)C(=NO)c1cc(S(=O)(=O)NC3CCCCC3)ccc1-2 [FIN56],remaining activity at 1.25 µM,[1]; Well no.=6740,99.6%
same,remaining activity at 1.25 µM,[1]; Well no.=8726,93.4%
same,remaining activity at 3.75 µM,[2]; Well no.=6740,97.8%
same,remaining activity at 3.75 µM,[2]; Well no.=8726,94.6%
C=CC[C@@H]1/C=C(\C)C[C@H](C)C[C@H](OC)[C@H]2O[C@@](O)(C(=O)C(=O)N3CCCC[C@H]3C(=O)O[C@H](/C(C)=C/[C@@H]3CC[C@@H](O)[C@H](OC)C3)[C@H](C)[C@@H](O)CC1=O)[C@H](C)C[C@@H]2OC [FK-506 (Tacrolimus)],remaining activity at 1.25 µM,[1]; Well no.=5168,94%
same,remaining activity at 3.75 µM,[2]; Well no.=5168,97.7%
Cc1ccc(C(=O)COC(=O)c2cccc(NC(=O)c3ccc([N+](=O)[O-])cc3[N+](=O)[O-])c2)cc1 [FM19G11],remaining activity at 1.25 µM,[1]; Well no.=5606,93.7%
same,remaining activity at 3.75 µM,[2]; Well no.=5606,96.9%
COC(=O)c1c(C)[nH]c(C)c1C(=O)c1ccccc1Cc1ccccc1 [FPL 64176],remaining activity at 1.25 µM,[1]; Well no.=713,97.6%
same,remaining activity at 3.75 µM,[2]; Well no.=713,94.1%
COC(=O)[C@H](CCSC)NC(=O)c1ccc(NC[C@@H](N)CS)cc1-c1ccccc1 [FTI-277 (hydrochloride)],remaining activity at 1.25 µM,[1]; Well no.=8508,101%
same,remaining activity at 3.75 µM,[2]; Well no.=8508,102%
CC(=O)OCC(CCn1cnc2cnc(N)nc21)COC(C)=O [Famciclovir],remaining activity at 1.25 µM,[1]; Well no.=2074,101%
same,remaining activity at 3.75 µM,[2]; Well no.=2074,104%
CC(C)=CCC/C(C)=C/CC/C(C)=C/CSc1ccccc1C(=O)O [Farnesylthiosalicylic acid],remaining activity at 1.25 µM,[1]; Well no.=567,102%
same,remaining activity at 3.75 µM,[2]; Well no.=567,102%
"O=C1c2ccccc2-[n+]2ccc3c([nH]c4ccccc43)c21 [Fascaplysin, Synthetic]",remaining activity at 1.25 µM,[1]; Well no.=2458,89%
same,remaining activity at 3.75 µM,[2]; Well no.=2458,82.7%
O=S(=O)(c1cccc2cnccc12)N1CCCNCC1 [Fasudil hydrochloride - 1-(5-Isoquinolinesulfonyl)homopiperazine hydrochloride],remaining activity at 1.25 µM,[1]; Well no.=2338,97.4%
same,remaining activity at 3.75 µM,[2]; Well no.=2338,99%
CCCc1cc(-c2nc(-c3ccc(C)cc3)cs2)ccn1 [Fatostatin HBr],remaining activity at 1.25 µM,[1]; Well no.=8822,94.2%
same,remaining activity at 3.75 µM,[2]; Well no.=8822,92.8%
NC(=O)OCC(COC(N)=O)c1ccccc1 [Felbamate],remaining activity at 1.25 µM,[1]; Well no.=609,101%
same,remaining activity at 1.25 µM,[1]; Well no.=1543,102%
same,remaining activity at 3.75 µM,[2]; Well no.=609,104%
same,remaining activity at 3.75 µM,[2]; Well no.=1543,101%
CCOC(=O)C1=C(C)NC(C)=C(C(=O)OC)C1c1cccc(Cl)c1Cl (centres unmarked) [Felodipine],remaining activity at 1.25 µM,[1]; Well no.=521,106%
same,remaining activity at 1.25 µM,[1]; Well no.=1757,99.7%
same,remaining activity at 3.75 µM,[2]; Well no.=1757,102%
COC(=O)Nc1nc2cc(Sc3ccccc3)ccc2[nH]1 [Fenbendazole],remaining activity at 1.25 µM,[1]; Well no.=2076,105%
same,remaining activity at 3.75 µM,[2]; Well no.=2076,102%
O=C(O)CCC(=O)c1ccc(-c2ccccc2)cc1 [Fenbufen],remaining activity at 1.25 µM,[1]; Well no.=2078,100%
same,remaining activity at 3.75 µM,[2]; Well no.=2078,102%
